The values below come from US20250145642A1, “BICYCLIC HETEROARENES AND METHODS OF THEIR USE” (Kineta, Inc., priority 2021, published 2025).

Assay [1] deals with PIKFYVE TDP-43 yeast strain. As to the kind of experiment: Propidium iodide viability assay, PIKFYVE TDP-43 yeast strain. Format: cell-based. The settings on record: for IC50: Saccharomyces cerevisiae, PIKFYVE TDP-43 yeast strain, reduction in PI-positive cells, highest concentration 15 μM, read-out: BIKFYVE TDP-43 (IC50); for PIKfyve TDP-43 (active/inactive): PIKFYVE TDP-43 yeast model. The source says: (§1) Generation of TDP-43 yeast model expressing human PIKfyve. Human PIKFYVE (“entry clone”) was cloned into pAG416GPDccdB (“destination vector”) according to standard Gateway cloning protocols (Invitrogen, Life Technologies). The resulting pAG416GPD-PIKFYVE plasmids were amplified in E. coli and plasmid identity confirmed by restriction digest and Sanger sequencing. Lithium acetate/polyethylene glycol-based transformation was used to introduce the above PIKFYVE plasmid into a BY4741 yeast strain auxotrophic for the ura3 gene and deleted for two transcription factors that regulate the xenobiotic efflux pumps, a major efflux pump, and FAB1, the yeast ortholog of PIKFYVE (MATa, snq2::KILeu2; pdr3::KIura3;pdr1::NATMX; fab1::G418^R, his 3;leu2;ura3;met15;LYS2+) (FIG. 2). Transformed yeast were plated on solid agar plates with complete synthetic media lacking uracil (CSM-ura) and containing 2% glucose. Individual colonies harboring the control or PIKFYVE TDP-43 plasmids were recovered. A plasmid containing wild-type TDP-43 under the transcriptional control of the GAL1 promoter and containing the hygromycin-resistance gene as a selectable marker was transformed into the fab1::G418^R pAG416GPD-PIKFYVE yeast strain (FIG. 1). Transformed yeast were plated on CSM-ura containing 2% glucose and […] G418 after overnight recovery in media lacking antibiotic. Multiple independent isolates were further evaluated for cytotoxicity and TDP-43 expression levels.
(§2) Viability Assay. A control yeast strain with the wild-type yeast FAB1 gene and TDP-43 (“FAB1 TDP-43”, carries empty pAG416 plasmid), and the “PIKFYVE TDP-43” yeast strain, were assessed for toxicity using a propidium iodide viability assay. Both yeast strains were transferred from solid CSM-ura/2% glucose agar plates into 3 mL of liquid CSM-ura/2% glucose media for 6-8 hours at 30° C. with aeration. Yeast cultures were then diluted to an optical density at 600 nm wavelength (OD600) of 0.005 in 3 mL of CSM-ura/2% raffinose and grown overnight at 30° C. with aeration to an OD600 of 0.3-0.8. Log-phase overnight cultures were diluted to OD600 of 0.005 in CSM-ura containing either 2% raffinose or galactose and 150 μL dispensed into each well of a flat bottom 96-well plates. Compounds formulated in 100% dimethyl sulfoxide (DMSO) were serially diluted in DMSO and 1.5 μL diluted compound transferred to the 96-well plates using a multichannel pipet. Wells containing DMSO alone were also evaluated as controls for compound effects. Tested concentrations ranged from 15 μM to 0.11 μM. Cultures were immediately mixed to ensure compound distribution and covered plates incubated at 30° C. for 24 hours in a stationary, humified incubator.
(§3) Upon the completion of incubation, cultures were assayed for viability using propidium iodide (PI) to stain for dead/dying cells. A working solution of PI was made where, for each plate, 1 μL of 10 mM PI was added to 10 mL of CSM-ura (raffinose or galactose). The final PI solution (50 μL/well) was dispensed into each well of a new round bottom 96-well plate. The overnight 96-well assay plate was then mixed with a multichannel pipet and 50 μL transferred to the PI-containing plate. This plate was then incubated for 30 minutes at 30° C. in the dark. A benchtop flow cytometer (Miltenyi MACSquant) was then used to assess red fluorescence (B2 channel), forward scatter, and side scatter (with following settings: gentle mix, high flow rate, fast measurement, 10,000 events). Intensity histograms were then gated for “PI-positive” or “PI-negative” using the raffinose and galactose cultures treated with DMSO as controls. The DMSO controls for raffinose or galactose-containing cultures were used to determine the window of increased cell death and this difference set to 100. All compounds were similarly gated and then compared to this maximal window to establish the percent reduction in PI-positive cells.
Biochemical and Efficacy Assays. […]

The next assay concerns FAB1 TDP-43 yeast strain. Kind of assay: Propidium iodide viability assay, FAB1 TDP-43 yeast strain. Format: cell-based. The settings on record: for FAB1 TDP-43 (active/inactive): FAB1 TDP-43 yeast model.
Description: as §1, §2, §3

Assay [2] deals with full-length human PIKFYVE (N-terminal GST-fusion) (Homo sapiens (Human), UniProt Q9Y2I7, L932S/Q1183K/Q995L/S1033A/S696N/T998S). Kind of assay: PIKfyve biochemical assay (ADP-Glo Kinase assay, Carna Biosciences). In outline: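 Baculovirus-expressed, glutathione-purified GST-tagged full-length human PIKFYVE (S696N/L932S/Q995L/T998S/S1033A/Q1183K) reacted with substrate and ATP in 50 mM MOPS, 1 mM DTT, pH 7.2, 1 h at room temperature. ADP formed read by ADP-Glo luminescence.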
full-length human PIKFYVE (N-terminal GST-fusion), sequence (Q9Y2I7 whole entry S696N/L932S/Q995L/T998S/S1033A/Q1183K, the tested form may be a part): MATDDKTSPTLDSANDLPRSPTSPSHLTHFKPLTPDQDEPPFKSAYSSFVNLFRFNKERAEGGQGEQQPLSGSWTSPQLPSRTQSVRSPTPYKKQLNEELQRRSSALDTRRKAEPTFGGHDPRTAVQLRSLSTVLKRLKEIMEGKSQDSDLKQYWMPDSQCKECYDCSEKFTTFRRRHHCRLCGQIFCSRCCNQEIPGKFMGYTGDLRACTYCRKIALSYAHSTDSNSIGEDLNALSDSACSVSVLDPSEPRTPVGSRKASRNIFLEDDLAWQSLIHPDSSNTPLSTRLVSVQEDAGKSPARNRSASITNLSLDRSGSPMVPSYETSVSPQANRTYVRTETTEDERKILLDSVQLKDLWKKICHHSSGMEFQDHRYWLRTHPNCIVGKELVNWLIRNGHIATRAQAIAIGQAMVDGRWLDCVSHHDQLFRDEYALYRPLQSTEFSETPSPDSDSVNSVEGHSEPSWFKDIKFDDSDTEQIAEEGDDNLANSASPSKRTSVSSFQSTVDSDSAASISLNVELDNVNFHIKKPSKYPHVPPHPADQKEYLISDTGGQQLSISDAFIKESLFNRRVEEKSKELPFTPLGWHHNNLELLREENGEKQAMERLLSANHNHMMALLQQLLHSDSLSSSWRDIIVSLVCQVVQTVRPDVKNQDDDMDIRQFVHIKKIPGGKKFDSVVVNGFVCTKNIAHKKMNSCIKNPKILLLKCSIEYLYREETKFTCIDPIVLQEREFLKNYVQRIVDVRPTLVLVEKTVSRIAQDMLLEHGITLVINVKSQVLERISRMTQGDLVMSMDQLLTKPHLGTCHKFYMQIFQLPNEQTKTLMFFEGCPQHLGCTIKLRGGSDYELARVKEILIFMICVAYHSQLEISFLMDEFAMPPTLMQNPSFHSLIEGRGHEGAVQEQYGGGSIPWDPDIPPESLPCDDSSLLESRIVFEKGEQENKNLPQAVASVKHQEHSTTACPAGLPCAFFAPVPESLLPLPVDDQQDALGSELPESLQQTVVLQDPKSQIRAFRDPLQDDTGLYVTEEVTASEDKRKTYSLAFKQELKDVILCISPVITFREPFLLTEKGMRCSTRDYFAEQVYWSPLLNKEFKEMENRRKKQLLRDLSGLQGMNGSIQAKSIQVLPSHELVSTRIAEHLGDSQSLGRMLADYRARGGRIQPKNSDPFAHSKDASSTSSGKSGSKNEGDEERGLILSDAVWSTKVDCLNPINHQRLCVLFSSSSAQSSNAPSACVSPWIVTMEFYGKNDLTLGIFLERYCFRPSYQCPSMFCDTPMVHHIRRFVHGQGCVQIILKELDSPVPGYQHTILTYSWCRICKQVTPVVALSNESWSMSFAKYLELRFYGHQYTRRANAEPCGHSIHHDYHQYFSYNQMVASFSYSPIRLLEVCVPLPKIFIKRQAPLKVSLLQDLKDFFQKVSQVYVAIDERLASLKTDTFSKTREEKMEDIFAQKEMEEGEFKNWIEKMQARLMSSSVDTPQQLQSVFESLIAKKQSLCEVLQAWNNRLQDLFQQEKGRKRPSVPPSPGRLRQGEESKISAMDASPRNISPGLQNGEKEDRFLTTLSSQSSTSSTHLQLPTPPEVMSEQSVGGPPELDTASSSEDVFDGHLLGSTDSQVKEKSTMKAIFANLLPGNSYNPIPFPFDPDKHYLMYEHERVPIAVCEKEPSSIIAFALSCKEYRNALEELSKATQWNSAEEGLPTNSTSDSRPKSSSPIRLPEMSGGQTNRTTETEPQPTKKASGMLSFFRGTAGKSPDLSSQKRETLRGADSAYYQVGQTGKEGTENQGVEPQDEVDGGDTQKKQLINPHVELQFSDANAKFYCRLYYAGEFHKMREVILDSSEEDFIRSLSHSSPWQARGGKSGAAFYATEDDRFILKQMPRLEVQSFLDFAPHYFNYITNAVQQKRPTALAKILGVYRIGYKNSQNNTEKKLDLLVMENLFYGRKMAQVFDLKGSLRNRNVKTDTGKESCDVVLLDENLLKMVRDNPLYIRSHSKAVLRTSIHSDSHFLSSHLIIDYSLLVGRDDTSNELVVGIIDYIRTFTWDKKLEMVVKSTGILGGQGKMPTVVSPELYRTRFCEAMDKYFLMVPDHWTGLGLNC

The target of assay [3] is PIKfyve (PIKFYVE-NanoLuc fusion in HEK293 cells) (Homo sapiens (Human), UniProt Q9Y2I7). As to the kind of experiment: NanoBRET TE Intracellular Kinase Assay, K-8 (Promega) cell-based assay. Particulars: transfected HEK293 cells, 2 hours, read-out: hPIKfyve BRET IC50. The method, then:
NanoBRET™ TE Intracellular Kinase Assay, K-8 (Promega) Cell-Based Assay. Intracellular inhibition of PIKfyve was assayed using Promega's NanoBRET™ TE Intracellular Kinase Assay, K-8 according to manufacturer's instructions. A dilution series of test compounds was added for 2 hours to HEK293 cells transfected for a minimum of 20 hours with PIKFYVE-NanoLuc® Fusion Vector (Promega) containing a full-length PIKfyve according to manufacturer's specifications in a 96-well plate. Kinase activity was detected by addition of a NanoBRET™ tracer reagent, which was a proprietary PIKfyve inhibitor appended to a fluorescent probe (BRET, bioluminescence resonance energy transfer). Test compounds were tested at concentrations of 10, 3, 1, 0.3, 0.1, 0.03, 0.01, 0.003 μM. BRET signals were measured by a GloMax®Discover Multimode Microplate Reader (Promega) using 0.3 sec/well integration time, 450 BP donor filter and 600 LP acceptor filters. Active test compounds that bound PIKfyve and displaced the tracer reduced BRET signal. IC50 values were then calculated by fitting the data to the normalized BRET ratio.

Where [4] appears, read: ADP-Glo, full-length human GST-PIKFYVE, 10 μM to 3 nM, read-out: hPIKfyve IC50.

Where two headings read alike, the source gives them in different places. Bounds are passed on as bounds.

PIKfyve (PIKFYVE-NanoLuc fusion in HEK293 cells), sequence (Q9Y2I7 whole entry, the tested form may be a part): as the sequence (Q9Y2I7 whole entry S696N/L932S/Q995L/T998S/S1033A/Q1183K, the tested form may be a part) above, with N696S, S932L, L995Q, S998T, A1033S, K1183Q counted along it

With `Cc1cccc(/C=N/Nc2cc(N3CCOCC3)nc(OCCc3ccc(CN)cc3)n2)c1`, the IC50 in assay [1] amounted to 1.12 µM.
As for `Cc1cccc(/C=N/Nc2cc(N3CCOCC3)n3nc(-c4ccncc4)cc3n2)c1` [APY0201, reference compound], the “viable cells in FAB1 TDP-43 (propidium iodide)” value with FAB1 TDP-43 yeast strain (across a range of compound concentrations (only 0.23 μM is shown), FIG. 5) is “no increase in viable cells”. For the same compound, in assay [1] (0.23 μM, FIG. 6), the “propidium iodide-positive dead cells in PIKFYVE TDP-43” value is “reduced the population of propidium iodide-positive dead cells”. For the same compound, in assay [1] (PIKFYVE TDP-43 model), the “concentrations affording increased viability in PIKFYVE TDP-43” value is recorded as “Concentrations ranging from 0.5 mM to less than 100 nM afforded increased viability”.
As for `Cn1c(-c2ccncc2)nc2c(N3CCOCC3)ncnc21`, the “FAB1 TDP-43 (active/inactive)” value in the assay on FAB1 TDP-43 yeast strain was “Inactive”. In addition, in assay [1], the “PIKfyve TDP-43 (active/inactive)” value is given as “Inactive”.
Take `Cc1cccc(/C=N/Nc2cc(N3CCOCC3)n3nc(-c4ccncc4)cc3n2)c1` [drawing 514]: in the assay on FAB1 TDP-43 yeast strain, the “FAB1 TDP-43 (active/inactive)” value is recorded as “Inactive”. Further, the “PIKfyve TDP-43 (active/inactive)” value in assay [1] is “Active”.
Turning to `Cc1cccc(/C=N/Nc2nc3c(c(N4CCOCC4)n2)N=C(c2ccncc2)C3C)c1` (stereo not drawn), the “FAB1 TDP-43 (active/inactive)” value with FAB1 TDP-43 yeast strain was “Inactive”. Further, the “PIKfyve TDP-43 (active/inactive)” value in assay [1] is “Active”. Moreover, the IC50 in assay [2] (ADP-Glo with full-length PIKfyve, read-out: PIKfyve IC50) amounted to 0.0049 µM.
`c1ccc(-n2ncc3c(OCc4cccnc4)nc(N4CCOCC4)nc32)cc1` [Compound 132, 4-(1-phenyl-4-(pyridin-3-ylmethoxy)-1H-pyrazolo[3,4-d]pyrimidin-6-yl)morpholine]: the IC50 in assay [3] lay within 0.1 to 1 µM; in assay [2] (setting [4]), 0.01 to 0.1 µM.
Regarding `CN(C)c1cc(N2CCOCC2)n2nc(-c3ccncc3)cc2n1`, the “FAB1 TDP-43 (active/inactive)” value with FAB1 TDP-43 yeast strain was “Inactive”. Further, the “PIKfyve TDP-43 (active/inactive)” value in assay [1] is given as “Inactive”.
For the compound `N#Cc1cc(N2CCOCC2)n2nc(-c3ccncc3)cc2n1`, the “FAB1 TDP-43 (active/inactive)” value in the assay with FAB1 TDP-43 yeast strain is reported as “Inactive”. Further, in assay [1], the “PIKfyve TDP-43 (active/inactive)” value is listed as “Inactive”.
`c1ccc(N2CCc3c(OCc4cccnc4)nc(N4CCOCC4)nc32)cc1` [drawing 539]: the half-inhibitory concentration (IC50) in assay [1] came to 2.69 µM.
Consider `Oc1cc(C2CCOCC2)nn1-c1cc(N2CCOCC2)n2nc(-c3ccncc3)cc2n1`, for which, in assay [1], the 50% inhibitory concentration (IC50) was determined as 9.11 µM.
On the same count and under the same terms, under `Cc1cccc(/C=N/Nc2nc(N3CCOCC3)c3nc(-c4ccncc4)n(C)c3n2)c1` stands 4.72 µM.
Same read-out and setting: to `c1ccc(-c2cccc(-c3cc(N4CCOCC4)n4nc(-c5ccncc5)cc4n3)n2)cc1` belongs 0.23 µM; to `Oc1cc(-c2ccccc2)nn1-c1cc(N2CCOCC2)n2nc(-c3ccncc3)nc2n1`, 0.693 µM.
For the compound `Fc1cccc(-c2ccnn2-c2nc(N3CCOCC3)c3ncccc3n2)c1`, the half-inhibitory concentration (IC50) is 5.75 µM in assay [1] and > 10 µM in assay [2] (values plotted in FIG. 7, read-out: PIKFYVE Biochemistry (IC50)).
Regarding `Cc1cccc(/C=N/Nc2nc(N3CCOCC3)c3ncccc3n2)c1`, in assay [1], the IC50 was 8.21 µM.
Consider `Cc1cccc(/C=N/Nc2cc(N3CC4CC3CO4)n3nc(-c4ccncc4)cc3n2)c1` (stereo not drawn), for which the “FAB1 TDP-43 (active/inactive)” value with FAB1 TDP-43 yeast strain is listed as “Inactive”. Moreover, in assay [1], the “PIKfyve TDP-43 (active/inactive)” value is “Active”.
With `c1ccc(-c2nccc(N3CCc4c(Oc5cccnc5)nc(N5CCOCC5)nc43)n2)cc1` [Compound 74, 4-(7-(2-phenylpyrimidin-4-yl)-4-(pyridin-3-yloxy)-6,7-dihydro-5H-pyrrolo[2,3-d]pyrimidin-2-yl)morpholine], the half-inhibitory concentration (IC50) in assay [2] (setting [4]) lay within 1 to 10 µM.
For `c1cncc(-c2nc(N3CCOCC3)nc3c2CCN3c2ccc3c(c2)OCO3)c1` [Compound 102, 4-(7-(benzo[d][1,3]dioxol-5-yl)-4-(pyridin-3-yl)-6,7-dihydro-5H-pyrrolo[2,3-d]pyrimidin-2-yl)morpholine], the IC50 in assay [2] (setting [4]) fell in the range of 0.01 to 0.1 µM.
For `c1ccc(-n2ccc(N3CCc4c(Oc5cccnc5)nc(N5CCOCC5)nc43)n2)cc1` [Compound 70, 4-(7-(1-phenyl-1H-pyrazol-3-yl)-4-(pyridin-3-yloxy)-6,7-dihydro-5H-pyrrolo[2,3-d]pyrimidin-2-yl)morpholine], the half-maximal inhibitory concentration (IC50) in assay [2] (setting [4]) was 1 to 10 µM.
The same measure, in the same setting: under `c1cncc(N2CCc3c(C4CCNCC4)nc(N4CCOCC4)nc32)c1` [Compound 108, 4-(4-(piperidin-4-yl)-7-(pyridin-3-yl)-6,7-dihydro-5H-pyrrolo[2,3-d]pyrimidin-2-yl)morpholine] stands 1 to 10 µM; under `COc1cccc(-c2c[nH]c3c(-c4ccncc4)nc(N4CCOCC4)nc23)n1` [Compound 139, 4-(7-(6-methoxypyridin-2-yl)-4-(pyridin-4-yl)-5H-pyrrolo[3,2-d]pyrimidin-2-yl)morpholine], 0.01 to 0.1 µM.
Still for that read-out and setting: under `CN1CCCC(COc2nc(N3CCOCC3)nc3c2CCN3c2cnn(C)c2)C1` (stereo not drawn) [Compound 18] stands 1 to 10 µM.
Regarding `c1ccc(-c2ccnc(-c3cc(N4CCOCC4)nc(OCc4ccncc4)n3)n2)cc1`, in assay [1], the IC50 was determined as 1.45 µM.
On to `CC(C)(O)COc1nc(N2CCOCC2)nc2c1CCN2c1cccnc1` [Compound 19, 2-methyl-1-(2-morpholino-7-(pyridin-3-yl)-6,7-dihydro-5H-pyrrolo[2,3-d]pyrimidin-4-yloxy)propan-2-ol], for which the half-inhibitory concentration (IC50) in assay [2] (setting [4]) lay in the range of 0.1 to 1 µM.
The same measure, in the same setting: to `Fc1cccc(N2CCc3c(-c4ccncc4)nc(N4CCOCC4)nc32)c1` [Compound 104, 4-(7-(3-fluorophenyl)-4-(pyridin-4-yl)-6,7-dihydro-5H-pyrroolo[2,3-d]pyrimidin-2-yl)morpholine] belongs < 0.01 µM.
`c1ccc(-n2cc(N3CCc4c(Oc5cccnc5)nc(N5CCOCC5)nc43)cn2)cc1` [Compound 71, 4-(7-(1-phenyl-1H-pyrazol-4-yl)-4-(pyridin-3-yloxy)-6,7-dihydro-5H-pyrrolo[2,3-d]pyrimidin-2-yl)morpholine]: in assay [2] (setting [4]), the half-maximal inhibitory concentration (IC50) lay in the range of 0.01 to 0.1 µM.
In the case of `c1ccc(-c2ccn(-c3nc(N4CCOCC4)nc4c3CCN4c3ccncc3)n2)cc1` [Compound 84, 4-(4-(3-phenyl-1H-pyrazol-1-yl)-7-(pyridin-4-yl)-6,7-dihydro-6H-pyrrolo[2,3-d]pyrimidin-2-yl)morpholine], the half-maximal inhibitory concentration (IC50) in assay [2] (setting [4]) was in the range of 0.01 to 0.1 µM.
Turning to `c1ccc(N2CCc3c(Oc4ccncc4)nc(N4CCOCC4)nc32)cc1` [Compound 54, 4-(7-phenyl-4-(pyridin-4-yloxy)-6,7-dihydro-5H-pyrrolo[2,3-d]pyrimidin-2-yl)morpholine], in assay [2] (setting [4]), the half-maximal inhibitory concentration (IC50) lay in the range of 0.01 to 0.1 µM.
